Laboratory results taken from PubChem BioAssay AID248 (DTP/NCI, 2004).
Values joined by “and” are separate entries in the source; they are usually repeats but may differ in a detail not shown here. Identical values can stand only once. Inconclusive results and toxic doses are left out.

Tested on: L1210 leukemia ip in BDF1 mice, survival T/C
Experiment: NCI In Vivo Anticancer Drug Screen. Data for tumor model L1210 Leukemia (intraperitoneal) in B6D2F1 (BDF1) mice
Conditions: endpoint: mean survival time, higher = longer survival
Method in brief: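 Ratio derived from survival: compound-dosed mice over vehicle-dosed mice, all bearing a transplantable tumor.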

[1] = dose: 100.0 mg/kg/injection, schedule: Q01DX001 (ip), vehicle: saline
[2] = dose: 200.0 mg/kg/injection, schedule: Q01DX001 (ip), vehicle: saline
[3] = dose: 400.0 mg/kg/injection, schedule: Q01DX001 (ip), vehicle: saline
[4] = dose: 100.0 mg/kg/injection, schedule: Q04DX002 (ip), vehicle: Klucel (hydroxypropylcellulose) (HPC)
[5] = dose: 200.0 mg/kg/injection, schedule: Q04DX002 (ip), vehicle: Klucel (hydroxypropylcellulose) (HPC)
[6] = dose: 400.0 mg/kg/injection, schedule: Q04DX002 (ip), vehicle: Klucel (hydroxypropylcellulose) (HPC)
[7] = dose: 100.0 mg/kg/injection, schedule: Q04DX003 (ip), vehicle: Klucel (hydroxypropylcellulose) (HPC)
[8] = dose: 200.0 mg/kg/injection, schedule: Q04DX003 (ip), vehicle: Klucel (hydroxypropylcellulose) (HPC)
[9] = dose: 400.0 mg/kg/injection, schedule: Q04DX003 (ip), vehicle: Klucel (hydroxypropylcellulose) (HPC)
[10] = dose: 100.0 mg/kg/injection, schedule: Q01DX009 (ip), vehicle: saline with Tween-80
[11] = dose: 200.0 mg/kg/injection, schedule: Q01DX009 (ip), vehicle: saline with Tween-80
[12] = dose: 400.0 mg/kg/injection, schedule: Q01DX009 (ip), vehicle: saline with Tween-80

Compound: O=C(Nc1nn[nH]n1)C(F)(F)F
- T/C [1]: 108 % of control
- T/C [2]: 103 % of control
- T/C [3]: 105 % of control

Compound: CN(C)c1n[nH]c(N)n1
- T/C (dose: 25.0 mg/kg/injection, schedule: Q01DX009 (ip), vehicle: saline): 100 % of control
- T/C (dose: 25.0 mg/kg/injection, schedule: Q04DX002 (ip), vehicle: saline): 110 % of control
- T/C (dose: 50.0 mg/kg/injection, schedule: Q01DX009 (ip), vehicle: saline): 98 % of control
- T/C (dose: 50.0 mg/kg/injection, schedule: Q04DX002 (ip), vehicle: saline): 103 % of control
- T/C (dose: 100.0 mg/kg/injection, schedule: Q01DX009 (ip), vehicle: saline): 96 % of control
- T/C (dose: 200.0 mg/kg/injection, schedule: Q01DX009 (ip), vehicle: saline): 108 % of control
- T/C (dose: 200.0 mg/kg/injection, schedule: Q04DX002 (ip), vehicle: saline with Tween-80): 111 % of control
- T/C (dose: 200.0 mg/kg/injection, schedule: Q04DX002 (ip), vehicle: saline): 103 % of control
- T/C (dose: 400.0 mg/kg/injection, schedule: Q01DX009 (ip), vehicle: saline): 116 % of control
- T/C (dose: 400.0 mg/kg/injection, schedule: Q04DX002 (ip), vehicle: saline with Tween-80): 108 % of control

Compound: CN(C(=O)/C=C\c1ccccc1)c1ccccc1
- T/C [4]: 104 % of control
- T/C [5]: 104 % of control
- T/C [6]: 104 % of control

Compound: CC1(CCC(=O)/C=C/c2ccccc2)CCC/C(=C/c2ccccc2)C1=O (stereo not given)
- T/C (dose: 12.5 mg/kg/injection, schedule: Q01DX009 (ip), vehicle: Klucel (hydroxypropylcellulose) (HPC)): 97 % of control
- T/C (dose: 25.0 mg/kg/injection, schedule: Q01DX009 (ip), vehicle: Klucel (hydroxypropylcellulose) (HPC)): 101 % of control
- T/C (dose: 50.0 mg/kg/injection, schedule: Q01DX009 (ip), vehicle: Klucel (hydroxypropylcellulose) (HPC)): 103 % of control
- T/C [7]: 91 % of control
- T/C [8]: 91 % of control
- T/C [9]: 91 % of control

Compound: COc1ccc(C(C)(C)CC(C)(C)C)cc1
- T/C (dose: 75.0 mg/kg/injection, schedule: Q01DX009 (ip), vehicle: Klucel (hydroxypropylcellulose) (HPC)): 111 % of control
- T/C [4]: 108 % of control
- T/C (dose: 150.0 mg/kg/injection, schedule: Q01DX009 (ip), vehicle: Klucel (hydroxypropylcellulose) (HPC)): 100 % of control
- T/C [5]: 118 % of control
- T/C (dose: 300.0 mg/kg/injection, schedule: Q01DX009 (ip), vehicle: Klucel (hydroxypropylcellulose) (HPC)): 91 % of control
- T/C [6]: 101 % of control

Compound: C1=Cc2ccccc2/C1=C/c1cccc(/C=C2\C=Cc3ccccc32)c1
- T/C (dose: 6.25 mg/kg/injection, schedule: Q01DX009 (ip), vehicle: saline with Tween-80): 101 % of control
- T/C (dose: 12.5 mg/kg/injection, schedule: Q01DX009 (ip), vehicle: saline with Tween-80): 97 % of control
- T/C (dose: 12.5 mg/kg/injection, schedule: Q04DX003 (ip), vehicle: saline with Tween-80): 100 % of control
- T/C (dose: 25.0 mg/kg/injection, schedule: Q01DX009 (ip), vehicle: saline with Tween-80): 97 % of control
- T/C (dose: 25.0 mg/kg/injection, schedule: Q04DX003 (ip), vehicle: saline with Tween-80): 95 % of control

Compound: CC(C)(C)C1=CC(C(C)(C)C)CCC1=O (stereo not given)
- T/C (dose: 100.0 mg/kg/injection, schedule: Q04DX003 (ip), vehicle: acetone): 98 % of control
- T/C (dose: 200.0 mg/kg/injection, schedule: Q04DX003 (ip), vehicle: acetone): 102 % of control
- T/C (dose: 400.0 mg/kg/injection, schedule: Q04DX003 (ip), vehicle: acetone): 92 % of control

Compound: CC(C)CN(CCCCO)CC(C)C
- T/C [10]: 95 % of control
- T/C (dose: 100.0 mg/kg/injection, schedule: Q04DX003 (ip), vehicle: saline): 100 % of control
- T/C [11]: 103 % of control
- T/C (dose: 200.0 mg/kg/injection, schedule: Q04DX003 (ip), vehicle: saline): 100 % of control
- T/C (dose: 400.0 mg/kg/injection, schedule: Q04DX003 (ip), vehicle: saline): 100 % of control

Compound: CCOC(=O)CCN(Cc1ccccc1)CC(C)C(=O)OC (stereo not given)
- T/C [10]: 102 % of control
- T/C (dose: 100.0 mg/kg/injection, schedule: Q04DX003 (ip), vehicle: saline with Tween-80): 104 % of control
- T/C [11]: 97 % of control
- T/C (dose: 200.0 mg/kg/injection, schedule: Q04DX003 (ip), vehicle: saline with Tween-80): 91 % of control
- T/C [12]: 95 % of control
- T/C (dose: 400.0 mg/kg/injection, schedule: Q04DX003 (ip), vehicle: saline with Tween-80): 96 % of control

Compound: CC1N=C(c2ccc(NC(=O)c3ccc(C(=O)Nc4ccc(C5=NC(C)C(C)N5)cc4)cc3)cc2)NC1C (stereo not given)
- T/C (dose: 0.5 mg/kg/injection, schedule: Q01DX015 (ip), vehicle: water): 104 % of control
- T/C (dose: 0.75 mg/kg/injection, schedule: Q01DX001 (ip), vehicle: water): 101 % of control
- T/C (dose: 1.0 mg/kg/injection, schedule: Q01DX015 (ip), vehicle: water): 110 % of control
- T/C (dose: 1.5 mg/kg/injection, schedule: Q01DX001 (ip), vehicle: water): 98 % of control
- T/C (dose: 2.0 mg/kg/injection, schedule: Q01DX001 (ip), vehicle: water): 106 % of control
- T/C (dose: 3.0 mg/kg/injection, schedule: Q01DX001 (ip), vehicle: water): 103 % of control
- T/C (dose: 3.0 mg/kg/injection, schedule: Q01DX015 (ip), vehicle: water): 189 % of control
- T/C (dose: 4.0 mg/kg/injection, schedule: Q01DX015 (ip), vehicle: water): 222 % of control

Compound: NCC(=O)NCCCC(=O)O
- T/C (dose: 18.75 mg/kg/injection, schedule: Q01DX001 (ip), vehicle: saline): 90 % of control
- T/C (dose: 37.5 mg/kg/injection, schedule: Q01DX001 (ip), vehicle: saline): 101 % of control
- T/C (dose: 75.0 mg/kg/injection, schedule: Q01DX001 (ip), vehicle: saline): 104 % of control

Compound: COC12C3C=CC4C(C=C3)C4C1C2Br (stereo not given)
- T/C (dose: 100.0 mg/kg/injection, schedule: Q01DX001 (ip), vehicle: Klucel (hydroxypropylcellulose) (HPC)): 98 % of control
- T/C (dose: 200.0 mg/kg/injection, schedule: Q01DX001 (ip), vehicle: Klucel (hydroxypropylcellulose) (HPC)): 103 % of control
- T/C (dose: 400.0 mg/kg/injection, schedule: Q01DX001 (ip), vehicle: Klucel (hydroxypropylcellulose) (HPC)): 106 % of control

Compound: CC(=N/NC(=O)c1ccc[n+](C)c1)/C(C)=N\NC(=O)c1ccc[n+](C)c1
- T/C (dose: 25.0 mg/kg/injection, schedule: Q01DX001 (ip), vehicle: saline): 95 % of control
- T/C (dose: 50.0 mg/kg/injection, schedule: Q01DX001 (ip), vehicle: saline): 95 % of control

Compound: COC(=O)C(Br)C(Br)c1ccc(OC)c(OC)c1 (stereo not given)
- T/C [7]: 96 % of control
- T/C [8]: 101 % of control
- T/C [9]: 96 % of control

Compound: CCSC1(SCC)C2(CCCCC2)C(=O)C12CCCCC2
- T/C [4]: 93 % of control
- T/C [5]: 96 % of control
- T/C [6]: 96 % of control

Compound: COC1(OC)C2(Cl)CC(c3ccc(Cl)cc3)C1(Cl)C(Cl)=C2Cl (stereo not given)
- T/C [10]: 110 % of control
- T/C [7]: 98 % of control
- T/C [11]: 101 % of control
- T/C [8]: 105 % of control
- T/C [12]: 100 % of control
- T/C [9]: 104 % of control

Compound: CCCCCCOB(OCCCCCC)OCCCCCC
- T/C (dose: 50.0 mg/kg/injection, schedule: Q01DX001 (ip), vehicle: carboxymethylcellulose (CMC)): 107 % of control
- T/C (dose: 88.0 mg/kg/injection, schedule: Q01DX001 (ip), vehicle: carboxymethylcellulose (CMC)): 97 % of control and 98 % of control
- T/C (dose: 100.0 mg/kg/injection, schedule: Q01DX001 (ip), vehicle: carboxymethylcellulose (CMC)): 102 % of control
- T/C (dose: 133.0 mg/kg/injection, schedule: Q01DX001 (ip), vehicle: carboxymethylcellulose (CMC)): 96 % of control and 103 % of control
- T/C (dose: 300.0 mg/kg/injection, schedule: Q01DX001 (ip), vehicle: carboxymethylcellulose (CMC)): 93 % of control and 94 % of control
- T/C (dose: 400.0 mg/kg/injection, schedule: Q01DX001 (ip), vehicle: carboxymethylcellulose (CMC)): 105 % of control

Compound: Cc1ccc(S(=O)(=O)NC(=O)N(C)c2cc(N3CCCC3)ccn2)cc1
- T/C [1]: 102 % of control
- T/C [2]: 96 % of control
- T/C [3]: 100 % of control

Compound: C(=N\N(Cc1ccccc1)CN(Cc1ccccc1)/N=C/c1ccccc1)/c1ccccc1
- T/C (dose: 100.0 mg/kg/injection, schedule: Q01DX001 (ip), vehicle: other): 90 % of control
- T/C (dose: 200.0 mg/kg/injection, schedule: Q01DX001 (ip), vehicle: other): 94 % of control
- T/C (dose: 400.0 mg/kg/injection, schedule: Q01DX001 (ip), vehicle: other): 87 % of control

Compound: CCn1c(=O)sc2cc(Cl)ccc21
- T/C [1]: 102 % of control
- T/C [2]: 98 % of control
- T/C [3]: 108 % of control
